# Measurements taken from patent publication US20230265104A1, “NOVEL HETEROCYCLIC COMPOUNDS” (PRISM BIOLAB CO., LTD., priority 2020, published 2023).
# Test system: PANC-1 (human pancreatic cancer-derived cell line)
# Assay: MTS assay on Panc-1 (human pancreas carcinoma cell line)
# Type: cell-based
# Details: 144 h; for IC50: PANC-1, MTS method, cell survival 6 days after exposure, 4-parameter logistic fit; for inhibition at 0.15625 µM: read-out: Growth inhibition (%) 0.15625 μM; for inhibition at 0.3125 µM: read-out: Growth inhibition (%) 0.3125 μM; for inhibition at 1 µM: read-out: Growth inhibition (%) 1 μM
# In short: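 Viability measured by MTS 6 days after treating human pancreatic carcinoma PANC-1 cells with compound serially diluted 2-fold in DMSO; absorbance 492–630 nm normalized to solvent control. Triplicate measurements averaged and fitted to a 4-parameter logistic curve.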
SMILES,"inhibition at 0.15625 µM (PANC-1, MTS, 6 days)","inhibition at 0.3125 µM (PANC-1, MTS, 6 days)",further results
"CC(C)C[C@H]1ON(C(=O)/C=C/c2nc(C#CCCCCO)cs2)[C@H]2CN(C3CN(CCCCO)C3)C(=O)[C@H](CC(C)(C)C)N2C1=O [ID-92, (3R,6S,9aS)-8-(1-(4-hydroxybutyl)azetidin-3-yl)-1-((E)-3-(4-(6-hydroxyhex-1-yn-1-yl)thiazol-2-yl)acryloyl)-3-isobutyl-6-neopentyltetrahydropyrazino[2,1-c][1,2,4]oxadiazine-4,7(3H,6H)-dione]",–,–,IC50: 120 nM
"CNC(=O)CCCC#Cc1csc(/C=C/C(=O)N2O[C@H](CC(C)C)C(=O)N3[C@@H]2CN([C@H]2CCN(CCCCO)C2)C(=O)[C@@H]3CC(C)(C)C)n1 [ID-93, 6-(2-((E)-3-((3R, 6S, 9aS)-8-((S)-1-(4-hydroxybutyl)pyrrolidin-3-yl)-3-isobutyl-6-neopentyl-4,7-dioxohexahydropyrazino[2,1-c][1,2,4]oxadiazin-1(6H)-yl)-3-oxoprop-1-en-1-yl)thiazol-4-yl)—N-methylhex-5-ynamide]",37.4%,–,–
"CC(C)C[C@H]1ON(C(=O)/C=C/c2nc(C#CC3CCOCC3)cs2)[C@H]2CN([C@@H]3CCN(CCCCO)C3)C(=O)[C@H](CC(C)(C)C)N2C1=O [ID-94, (3R,6S,9aS)-8-((R)-1-(4-hydroxybutyl)pyrrolidin-3-yl)-3-isobutyl-6-neopentyl-1-((E)-3-(4-((tetrahydro-2H-pyran-4-yl)ethynyl)thiazol-2-yl)acryloyl)tetrahydropyrazino[2,1-c] [1,2,4]oxadiazine-4,7-(3H,6H)-dione]",42.3%,–,–
"CC(C)C[C@@H]1ON(C(=O)/C=C/c2nc3ccccc3s2)[C@@H]2CN([C@@H]3CCN(CCCCO)C3)C(=O)[C@H](CC(C)(C)C)N2C1=O [ID-95, (3S,6S,9aR)-1-((E)-3-(benzo[d]thiazol-2-yl)acryloyl)-8-((R)-1-(4-hydroxybutyl)pyrrolidin-3-yl)-3-isobutyl-6-neopentyltetrahydropyrazino[2,1-c][1,2,4]oxadiazine-4,7(3H,6H)-dione]",–,–,IC50: 1400 nM
"CC(C)C[C@H]1CN(C(=O)/C=C/c2nc3ccccc3s2)[C@H]2CN([C@@H]3CCN(CCCCO)C3)C(=O)[C@H](CC(C)(C)C)N2C1=O [ID-96, (3S,6S,9aR)-1-((E)-3-(benzo[d]thiazol-2-yl)acryloyl)-8-((R)-1-(4-hydroxybutyl)pyrrolidin-3-yl)-3-isobutyl-6-neopentylhexahydro-4H-pyrazino[1,2-a]pyrimidine-4,7(6H)-dione]",–,-1.7%,"inhibition at 10 µM (PANC-1, MTS, 6 days, 10 μM, read-out: Growth inhibition (%) 10 μM): 101%"
"CC(C)C[C@H]1ON(C(=O)/C=C/c2nc(C#CCOCCO)cs2)[C@H]2CN(C3CCN(C(C)C)CC3)C(=O)[C@H](CC(C)(C)C)N2C1=O [ID-97, (3R,6S,9aS)-1-((E)-3-(4-(3-(2-hydroxyethoxy)prop-1-yn-1-yl)thiazol-2-yl)acryloyl)-3-isobutyl-8-(1-isopropylpiperidin-4-yl)-6-neopentyltetrahydropyrazino[2,1-c][1,2,4]oxadiazine-4,7 (3H, 6H)-dione]",51%,–,IC50: 150 nM
"CC(C)C[C@H]1ON(C(=O)/C=C/c2nc3cc(O)ccc3s2)[C@H]2CN(C3CCN(C(C)C)CC3)C(=O)[C@H](CC(C)(C)C)N2C1=O [ID-98, (3R,6S,9aS)-1-((E)-3-(5-hydroxybenzo[d]thiazol-2-yl)acryloyl)-3-isobutyl-8-(1-isopropylpiperidin-4-yl)-6-neopentyltetrahydropyrazino[2,1-c][1,2,4]oxadiazine-4,7(3H,6H)-dione]",61.7%,–,–
"CC(C)N1CCC(N2C[C@@H]3N(C(=O)/C=C/c4nc(C#CCCCCO)cs4)O[C@H](CC4CC4)C(=O)N3[C@@H](CC(C)(C)C)C2=O)CC1 [ID-99, (3R,6S,9aS)-3-(cyclopropylmethyl)-1-((E)-3-(4-(6-hydroxyhex-1-yn-1-yl)thiazol-2-yl)acryloyl)-8-(1-isopropylpiperidin-4-yl)-6-neopentyltetrahydropyrazino[2,1-c] [1,2,4]oxadiazine-4,7(3H,6H)-dione]",61.1%,–,–
"C#Cc1sc(/C=C/C(=O)N2O[C@H](CC(C)C)C(=O)N3[C@@H]2CN(C2CCN(C(C)C)CC2)C(=O)[C@@H]3CC(C)(C)C)nc1C#CCCCO [ID-100, (3R,6S,9aS)-1-((E)-3-(5-ethynyl-4-(5-hydroxypent-1-yn-1-yl)thiazol-2-yl)acryloyl)-3-isobutyl-8-(1-isopropylpiperidin-4-yl)-6-neopentyltetrahydropyrazino[2,1-c][1,2,4]oxadiazine-4,7(3H,6H)-dione]",99.8%,–,–
"CC(C)C[C@H]1ON(C(=O)/C=C/c2nc3cc(OCCCO)ccc3s2)[C@H]2CN(C3CCN(C(C)C)CC3)C(=O)[C@H](CC(C)(C)C)N2C1=O [ID-101, (3R,6S,9aS)-1-((E)-3-(5-(3-hydroxypropoxy)benzo[d]thiazol-2-yl)acryloyl)-3-isobutyl-8-(1-isopropylpiperidin-4-yl)-6-neopentyltetrahydropyrazino[2,1-c][1,2,4]oxadiazine-4,7(3H,6H)-dione]",65.6%,–,–
"CC(C)C[C@H]1ON(C(=O)/C=C/c2nc(C#CCCCO)cs2)[C@H]2CN(C3CCN(C4CC4)CC3)C(=O)[C@H](CC(C)(C)C)N2C1=O [ID-102, (3R,6S,9aS)-8-(1-cyclopropylpiperidin-4-yl)-1-((E)-3-(4-(5-hydroxypent-1-yn-1-yl)thiazol-2-yl)acryloyl)-3-isobutyl-6-neopentyltetrahydropyrazino[2,1-c][1,2,4]oxadiazine-4,7(3H,6H)-dione]",36.9%,–,–
"C#Cc1sc(/C=C/C(=O)N2O[C@H](CC(C)C)C(=O)N3[C@@H]2CN(C2CCN(C)CC2)C(=O)[C@@H]3CC(C)(C)C)nc1C#CCCCO [ID-103, (3R,6S,9aS)-1-((E)-3-(5-ethynyl-4-(5-hydroxypent-1-yn-1-yl)thiazol-2-yl)acryloyl)-3-isobutyl-8-(1-methylpiperidin-4-yl)-6-neopentyltetrahydropyrazino[2,1-c][1,2,4]oxadiazine-4,7 (3H, 6H)-dione]",–,99.6%,–
"CC(C)(C)C[C@H]1C(=O)N([C@@H]2CCN(CCCCO)C2)C[C@@H]2N(C(=O)/C=C/c3nc4ccccc4s3)O[C@H](C[C@H]3C[C@@H]3CCc3ccccc3)C(=O)N21 [ID-104, (3R,6S,9aS)-1-((E)-3-(benzo[d]thiazol-2-yl)acryloyl)-8-((R)-1-(4-hydroxybutyl)pyrrolidin-3-yl)-6-neopentyl-3-(((1R,2S)-2-phenethylcyclopropyl)methyl)tetrahydropyrazino[2,1-c][1,2,4]oxadiazine-4,7(3H,6H)-dione]",–,30.1%,–
"CC(C)(C)C[C@H]1C(=O)N([C@@H]2CCN(CCCCO)C2)C[C@@H]2N(C(=O)/C=C/c3cnc4ccccc4n3)O[C@H](CCCCNC(=O)OCc3ccccc3)C(=O)N21 [ID-105, benzyl (4-((3R,6S,9aS)-8-((R)-1-(4-hydroxybutyl)pyrrolidin-3-yl)-6-neopentyl-4,7-dioxo-1-((E)-3-(quinoxalin-2-yl)acryloyl)octahydropyrazino[2,1-c][1,2,4]oxadiazin-3-yl)butyl)carbamate]",–,–,"inhibition at 30 µM (PANC-1, MTS, 6 days, 30 μM, read-out: Growth inhibition (%) 30 μM): 98.3%"
"CC(C)N1CCC(N2C[C@@H]3N(C(=O)/C=C/c4cnc5ccccc5n4)O[C@H](CC4CCCCC4)C(=O)N3[C@@H](CC(C)(C)C)C2=O)CC1 [ID-106, (3R,6S,9aS)-3-(cyclohexylmethyl)-8-(1-isopropylpiperidin-4-yl)-6-neopentyl-1-((E)-3-(quinoxalin-2-yl)acryloyl)tetrahydropyrazino[2,1-c][1,2,4]oxadiazine-4,7(3H,6H)-dione]",–,29.8%,"inhibition at 1 µM (PANC-1, MTS, 6 days): 101%"
"CCC(CC)C[C@H]1ON(C(=O)/C=C/c2cnc3ccccc3n2)[C@H]2CN([C@@H]3CCN(CCCCO)C3)C(=O)[C@H](CC(C)(C)C)N2C1=O [ID-107, (3R, 6S, 9aS)-3-(2-ethylbutyl)-8-((R)-1-(4-hydroxybutyl)pyrrolidin-3-yl)-6-neopentyl-1-((E)-3-(quinoxalin-2-yl)acryloyl)tetrahydropyrazino[2,1-c][1,2,4]oxadiazine-4,7(3H,6H)-dione]",–,94.3%,"IC50: 200 nM; inhibition at 1 µM (PANC-1, MTS, 6 days): 98.5%"
